Reference: patent US5563134A (Sandoz Ltd., priority 1993, dated 1996)
Like-named read-outs stand apart in the source and are kept apart here.

Tests used:
[1] = test system: glutathione and protein from human myeloperoxidase and human leucocytes; assay: Reactive species formation and covalent binding of clozapine metabolites, tests as for clozapine
horseradish peroxidase [2] = molecular target: T1, horseradish peroxidase (Armoracia rusticana, UniProt P00433); assay: Clozapine metabolism by peroxidase, disappearance of UV absorption at 290 nm; format: biochemical
T1 sequence (P00433 31-338 limits assumed): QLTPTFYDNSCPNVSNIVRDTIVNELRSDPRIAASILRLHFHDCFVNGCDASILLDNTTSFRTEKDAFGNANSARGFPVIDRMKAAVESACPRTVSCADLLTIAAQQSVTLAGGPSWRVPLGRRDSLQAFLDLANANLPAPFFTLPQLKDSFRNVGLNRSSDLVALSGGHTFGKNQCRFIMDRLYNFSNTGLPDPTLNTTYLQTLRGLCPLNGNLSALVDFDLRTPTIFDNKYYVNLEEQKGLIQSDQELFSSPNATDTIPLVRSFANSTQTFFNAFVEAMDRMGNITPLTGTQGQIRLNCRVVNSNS

[3] = test system: human myeloperoxidase or horseradish peroxidase; assay: HPLC with on-line radioactivity detection of tritium-labeled clozapine incubated with peroxidase and hydrogen peroxide; format: biochemical
Procedure: For HPLC a reversed phase column (Supelco Inc., Bellefonte Pa. USA LC-18-DB, 5 μm, 250×4.6 mm) was used. The mobile phase consisted of (NH4)2 CO3 buffer pH 8.5 (solvent A) and acetonitrile (solvent B). The proportion of solvent B was 0% for 5 minutes and was increased to reach 20% at 10 minutes, 24% at 60 minutes and 80% at 100 minutes. […] Instead two radioactive peaks eluting at 28 and 53 minutes from the HPLC appeared.

[4] = test system: horseradish peroxidase (or human myeloperoxidase); format: biochemical
Procedure: (§1) Oxygen consumption has also been observed when horseradish peroxidase was replaced with human myeloperoxidase (10 units) and GSH with NADPH (10 mM).

[5] = test system: granulocytes/polymorphonuclear leucocytes (PMN's); assay: Covalent binding of radiolabeled clozapine to isolated PMN's; format: cell-based, human
Procedure: 4) In another test heparinized peripheral blood was obtained from normal, healthy male volunteers, and granulocytes/polymorphonuclear leucocytes (PMN's) were isolated within 1-2 hours using an isolation kit (United Technologies Packard, Los Alamos, USA). PMN's were suspended in RPMI 1640 (Gibco, Basel, Switzerland) medium and adjusted to about 4×10^6 cells/ml before fetal calf serum was added (10% v/v).

[6] = test system: glutathione and protein from human myeloperoxidase and human leucocytes
horseradish peroxidase [7] = molecular target: T1, horseradish peroxidase; assay: Electron spin resonance spectroscopy of radicals in a peroxidase system; details: for Effect on ascorbyl radical concentration (ESR): 1 mM added to ascorbate/clozapine/horseradish peroxidase/hydrogen peroxide system
[8] = molecular target: horseradish peroxidase (or human myeloperoxidase) (Homo sapiens, UniProt P05164); format: biochemical; details: clozapine 100 μM, human myeloperoxidase 10 units, NADPH 10 mM, in place of horseradish peroxidase and GSH
Sequence of horseradish peroxidase (or human myeloperoxidase) (Homo sapiens, UniProt P05164) (P05164 165-278 limits assumed): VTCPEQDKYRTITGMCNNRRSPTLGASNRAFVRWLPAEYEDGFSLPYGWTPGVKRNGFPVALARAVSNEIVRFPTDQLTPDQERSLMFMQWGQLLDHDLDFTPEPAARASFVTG
Sequence of horseradish peroxidase (or human myeloperoxidase) (Homo sapiens, UniProt P05164) (P05164 279-745 limits assumed): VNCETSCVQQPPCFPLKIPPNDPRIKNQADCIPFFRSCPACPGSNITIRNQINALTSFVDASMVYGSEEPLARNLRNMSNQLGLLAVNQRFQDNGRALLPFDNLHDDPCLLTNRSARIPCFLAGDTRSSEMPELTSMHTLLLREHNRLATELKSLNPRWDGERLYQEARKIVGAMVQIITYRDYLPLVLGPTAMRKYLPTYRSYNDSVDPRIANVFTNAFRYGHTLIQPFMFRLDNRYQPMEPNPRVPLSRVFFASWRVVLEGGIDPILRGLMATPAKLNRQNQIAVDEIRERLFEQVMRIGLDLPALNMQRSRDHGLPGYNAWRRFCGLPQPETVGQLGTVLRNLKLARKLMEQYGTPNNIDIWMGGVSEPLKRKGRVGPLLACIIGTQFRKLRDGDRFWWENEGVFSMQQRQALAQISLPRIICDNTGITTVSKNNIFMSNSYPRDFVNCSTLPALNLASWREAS
Procedure: as §1

[9] = test system: patients refractory and/or intolerant to classical antipsychotic drug treatment; details: cited from earlier work

SMILES: O=C1O[C@H]([C@@H](O)CO)C(O)=C1O [ascorbic acid, L-ascorbic acid]
- Effect on covalent binding of clozapine and its metabolites ([1]; intact human cells, radical scavenger): prevented

SMILES: O=C1O[C@H]([C@@H](O)CO)C([O-])=C1O.[Na+] [sodium ascorbate]
- Effect on metabolism of clozapine (UV signal changes) (horseradish peroxidase [2]; sodium ascorbate 0.7 mM added to the incubation): reversed
- Effect on clozapine metabolism (metabolite formation) ([3]; sodium ascorbate 0.7 mM): completely reversed
- Effect on covalent binding of clozapine to enzymatic protein ([3]; sodium ascorbate 0.7 mM): no radioactivity coeluted with the enzymatic protein
- Effect on oxygen consumption i.e. initial clozapine radical formation ([4]; sodium ascorbate 0.7 mM): prevented
- Effect on clozapine binding to PMN's ([5]; 5 mM sodium ascorbate, incubations containing opsonized zymosan): reduction of clozapine binding to PMN's
- Effect on covalent binding of clozapine to PMN's ([5]; radiolabeled clozapine and sodium ascorbate incubated together with PMN's, worded "may also be shown"): reduction of covalent binding

SMILES: C[N+]1([O-])CCN(C2=Nc3cc(Cl)ccc3Nc3ccccc32)CC1 [8-chloro-11-(4-methyl-4-oxo-1-piperazinyl)-5H-dibenzo[b,e][1,4]diazepine]
- Formation of reactive species [6]: form reactive species such as free radicals

SMILES: CSc1ccc2c(c1)N=C(N1CCN(C)CC1)c1ccccc1N2 [8-methylthio-11-(4-methyl-1-piperazinyl)-5H-dibenzo[b,e][1,4]diazepine]
- Formation of reactive species [6]: form reactive species such as free radicals

SMILES: Oc1ccc2c(c1)N=C(N1CCNCC1)c1ccccc1N2 [8-hydroxy-11-(1-piperazinyl)-5H-dibenzo[b,e][1,4]diazepine]
- Formation of reactive species [6]: form reactive species such as free radicals

SMILES: NC(=O)C1=CN([C@@H]2O[C@H](COP(=O)(O)OP(=O)(O)OC[C@H]3O[C@@H](n4cnc5c(N)ncnc54)[C@H](OP(=O)(O)O)[C@@H]3O)[C@@H](O)[C@H]2O)C=CC1 [NADPH]
- Effect on ascorbyl radical concentration (ESR) (horseradish peroxidase [7]): almost absent

SMILES: N[C@@H](CCC(=O)N[C@@H](CS)C(=O)NCC(=O)O)C(=O)O [glutathione]
- Effect on covalent binding to the enzymatic protein and metabolite formation ([3]; GSH 10 mM, pH 7.4, added to standard incubation): reduced but to a lesser extent
- Effect on ascorbyl radical concentration (ESR) (horseradish peroxidase [7]): only marginally affected

SMILES: Clc1ccc2c(c1)N=C(N1CCNCC1)c1ccccc1N2 [8-chloro-11-(1-piperazinyl)-5H-dibenzo[b,e][1,4]diazepine]
- Formation of reactive species [6]: form reactive species such as free radicals

SMILES: CN1CCN(C2=Nc3cc(Cl)c(O)cc3Nc3ccccc32)CC1 [7-hydroxy-8-chloro-11-(4-methyl-1-piperazinyl)-5H-dibenzo[b,e][1,4]diazepine]
- Formation of reactive species [6]: form reactive species such as free radicals

SMILES: CN1CCN(C2=Nc3cc(Cl)ccc3Nc3ccccc32)CC1 [clozapine, 8-chloro-11-(4-methyl-1-piperazinyl)-5H-dibenzo[b,e][1,4]diazepine]
- Clozapine metabolism by peroxidases (disappearance of UV absorption at 290 nm) (horseradish peroxidase [2]; clozapine 100 μM, 1-5 μg/ml horseradish peroxidase, 50 μM hydrogen peroxide, pH 7.4): demonstrated
- Covalent binding of clozapine-derived material to the enzyme (coelution of radioactivity with enzymatic protein) ([3]; clozapine 100 μM, enzyme and hydrogen peroxide present): Covalent binding of clozapine-derived material to the enzyme was indicated
- Oxygen consumption [8]: observed
- Oxygen consumption as indicator of radical formation ([4]; clozapine 100 μM, horseradish peroxidase 5 μg/ml, GSH 10 mM, pH 7.4): indicates an initial clozapine radical formation
- Antipsychotic efficacy compared with standard neuroleptics ([9]; clinical studies): superior
- Patients refractory to standard neuroleptics who significantly improved ([9]; clozapine treatment): approximately 30%
- Risk of granulocytopenia and agranulocytosis ([9]; clozapine treatment): apparent increased risk
- Increase in steady-state concentration of the ascorbyl radical when clozapine is present (horseradish peroxidase [7]; 100 μM sodium ascorbate, 100 μM clozapine, horseradish peroxidase 8.3 μg/ml, hydrogen peroxide 50 μM, pH 7.4): over two fold
- Glutathionyl thiyl radicals by ESR (DMPO trapping) (horseradish peroxidase [7]; absence of sodium ascorbate, DMPO 100 mM): detected

SMILES: CSc1ccc2c(c1)N=C(N1CCNCC1)c1ccccc1N2 [8-methylthio-11-(1-piperazinyl)-5H-dibenzo-[b,e][1,4]diazepine]
- Formation of reactive species [6]: form reactive species such as free radicals

SMILES: CN1CCN(C2=Nc3cc(O)ccc3Nc3ccccc32)CC1 [8-hydroxy-11-(4-methyl-1-piperazinyl)-5H-dibenzo[b,e][1,4]diazepine]
- Formation of reactive species ([1]; tests as for clozapine, worded "can also be shown"): form reactive species such as free radicals
